Experimental data from patent US20220347188A1, “PROMOTING TISSUE REGENERATION” (FRIEDRICH MIESCHER INSITUTE FOR BIOMEDICAL RESEARCH, priority 2019, published 2022).

System: intestinal organoids
Assay: intestinal organoids cultured from single cells, image-based phenotypic assay
Format: cell-based
Excerpt: The present inventors developed a novel image-based phenotypic screening platform in intestinal organoids cultured from single cells to generate a toolbox of compounds shaping the intestinal organoid phenotypic landscape. The compounds were used to infer functional genetic interactions and identify pathways impacting different steps of organoid development. The inventors focused on compounds that improve the regeneration potential of the intestinal epithelium and discovered a novel role for nuclear retinoic acid receptors during organoid damage response and homeostasis both in vitro and in vivo.
FIG. 1 RXR activity is indispensable for symmetry breaking and cell type balance maintenance Representative images of organoids cultured from single cells in indicated treatment conditions (left), composite maximum intensity projections of confocal z-stacks, nuclei, DAPI, antibody staining for Lysozyme and Aldolase B, scale bar, 50 μm. Violin plots showing distribution of mean Aldolase B staining intensity in control and treated organoids (top right). Box plots inside violin plots show quartile range, whiskers show value interval with excluded outliers, white dots indicate median values, n, number of individual organoids in respective conditions. DMSO, DMSO control, RXRi, 5 μM RXR antagonist. […]

In the case of `CC1=C(/C=C/C(C)=C/C=C/C(C)=C/C(=O)O)C(C)(C)CCC1` [atRA, all-trans retinoic acid], the “ALDH1A1-positive as well as RARE-positive region” value (ALDH1A1 antibody staining and RARE reporter gene) is reported as “expansion” and the “absorptive enterocytes in organoids” value (organoids cultured in presence of an RXR agonist and atRA) is reported as “increase in absorptive enterocytes”.
